Here are results for nine compounds from US10941157B2, “Pesticidal compositions and uses thereof” (Gilead Apollo, LLC, priority 2015, dated 2021).

≈ marks a conversion by molar mass, not a printed value.

What all share (type): cell-based
One experiment deals with Septoria tritici (St). Put plainly: In vitro pathogen growth inhibition assay, St. To be noted: for IC90: Zymoseptoria tritici, 48 h, ≥90% inhibition, 48 hours vs 2% DMSO control, read-out: Compound Concentration (ppm) sufficient for ≥90% inhibition of growth, St; for Compound Concentration (ppm) sufficient for ≥90% inhibition of St: ≥90% growth inhibition, 48 hours, vs 2% DMSO control. The protocol: (§1) A growth inhibition assay was conducted to determine the ability of compounds to control the growth of fungal pathogens, such as Botrtyis cinerea (Bc), Collectotrichum graminicola (Cg), Diplodia maydis (Dm), Fusarium moniliforme (Fm), Fusarium virguliforme (Fv), Phytophthora capsici (Pc), Rhizoctonia solani (Rs), and Septoria tritici (St). The compounds listed in Table 1 were each dissolved in DMSO at 2.5 mg/ml to produce compound stock solutions (“stocks”). […] Negative controls on each plate included 2% DMSO, water, and a blank (media+2% DMSO). Fungal spores were isolated from previously sub-cultured plates of Botrtyis cinerea (Bc), Collectotrichum graminicola (Cg), Diplodia maydis (Dm), Fusarium moniliforme (Fm), Fusarium virguliforme (Fv), Phytophthora capsici (Pc), and Septoria tritici (St). The isolated spores were diluted to individual concentrations with a 17% V8 liquid media. For Rhizoctonia solani (Rs), 1.5 mm mycelial plugs were used in place of spores and ¼ Potato Dextrose Broth (PDB) was used for dilution. The spore concentrations and plug sizes were based on growth curves generated at 48 hours for each pathogen. In a second 96-well plate, the spores or mycelial plugs, media, diluted compound solutions, and controls were combined. Once the compound was added, a true final concentration of compound in each well was measured by an OD600 reading, which adjusted for any compound precipitation that might have occurred in the well. Plate readings were repeated at both 24 and 48 hours. The blank negative control was used as a background subtraction. Additional visual ratings were performed at both 24 and 48 hours for checking on precipitation and confirming efficacy. […] Both tables list the concentration of each compound that was sufficient to ≥90% inhibition of growth for each of the fungal pathogens listed above. In addition, some of compounds were tested in a yeast growth inhibition assay for Saccharomyces cerevisiae (Sc). Table 2 lists the concentration of the tested compound that was sufficient to ≥75% inhibition of Saccharomyces cerevisiae (Sc).

The test system of the next experiment is Diplodia maydis (Dm). As to the kind of experiment: In vitro pathogen growth inhibition assay, Dm. To be noted: Stenocarpella maydis, 48 h, ≥90% inhibition; 48 hours vs 2% DMSO control; read-out: Compound Concentration (ppm) sufficient for ≥90% inhibition of growth, Dm. The protocol: as §1
A further experiment deals with Rhizoctonia solani (Rs). As to the kind of experiment: In vitro pathogen growth inhibition assay, Rs (mycelial plugs). As to conditions: mycelial plugs; for IC90: Rhizoctonia solani, 48 h, ≥90% inhibition, 48 hours vs 2% DMSO control, read-out: Compound Concentration (ppm) sufficient for ≥90% inhibition of growth, Rs; for Compound Concentration (ppm) sufficient for ≥90% inhibition of Rs: ≥90% growth inhibition, 48 hours, vs 2% DMSO control. The protocol:
as §1

For experiment [1], the system named is Phytophthora capsici (Pc). Put plainly: In vitro pathogen growth inhibition assay, Pc. As to conditions: 48 h, ≥90% inhibition, 48 hours vs 2% DMSO control, read-out: Compound Concentration (ppm) sufficient for ≥90% inhibition of growth, Pc. As to the method:
as §1

Experiment [2] relates to Fusarium moniliforme (Fm). As to the kind of experiment: In vitro pathogen growth inhibition assay, Fm. To be noted: Fusarium verticillioides; ≥90% inhibition; 48 hours vs 2% DMSO control; read-out: Compound Concentration (ppm) sufficient for ≥90% inhibition of growth, Fm. As to the method: as §1
Experiment [3] relates to Fusarium virguliforme (Fv). As to the kind of experiment: In vitro pathogen growth inhibition assay, Fv. To be noted: ≥90% inhibition, 48 hours vs 2% DMSO control, read-out: Compound Concentration (ppm) sufficient for ≥90% inhibition of growth, Fv. The protocol:
as §1

A further experiment has as its system Botrtyis cinerea (Bc). Put plainly: In vitro pathogen growth inhibition assay, Bc. To be noted: 48 h, ≥90% inhibition; 48 hours vs 2% DMSO control; read-out: Compound Concentration (ppm) sufficient for ≥90% inhibition of growth, Bc. As to the method: as §1
Experiment [4] relates to Collectotrichum graminicola (Cg). Put plainly: In vitro pathogen growth inhibition assay, Cg. As to conditions: 48 h, ≥90% inhibition; 48 hours vs 2% DMSO control; read-out: Compound Concentration (ppm) sufficient for ≥90% inhibition of growth, Cg. The protocol: as §1

For the compound `COc1ccc(F)cc1[C@H](Cn1c(=O)n(C(C)(C)C(=O)N2CCCCC2)c(=O)c2c(C)c(-n3cccn3)sc21)OC(C)C` [Compound I-002], the IC90 in the experiment with Septoria tritici (St) was > 10 µg/mL; in the experiment on Diplodia maydis (Dm) it was 0.4 µg/mL (≈ 0.654 µM); in the experiment on Rhizoctonia solani (Rs), 0.4 µg/mL (≈ 0.654 µM); in experiment [1], > 50 µg/mL; in experiment [2] it was 0.08 µg/mL (≈ 0.131 µM); in experiment [3], 0.4 µg/mL (≈ 0.654 µM). The IC90 was determined as 0.4 µg/mL (≈ 0.654 µM) in the experiment on Botrtyis cinerea (Bc) and 2 µg/mL (≈ 3.27 µM) in experiment [4].

Regarding `COc1ccc(F)cc1[C@H](Cn1c(=O)n(C(C)(C)C(=O)NC(C)C)c(=O)c2c(C)c(-c3ncco3)sc21)OC1CCOCC1` [Compound I-015], the IC90 in the experiment on Septoria tritici (St) was > 10 µg/mL; with Diplodia maydis (Dm) it was ≥ 0.4 µg/mL; in the experiment with Rhizoctonia solani (Rs), 10 µg/mL (≈ 15.9 µM); in experiment [1], > 50 µg/mL; in experiment [2] it was 0.08 µg/mL (≈ 0.127 µM); in experiment [3], 0.4 µg/mL (≈ 0.636 µM). Further, the IC90 with Botrtyis cinerea (Bc) was determined as 0.4 µg/mL (≈ 0.636 µM); in experiment [4], 2 µg/mL (≈ 3.18 µM).

As for `COc1ccc(F)cc1[C@H](Cn1c(=O)n(C(C)(C)C(=O)N2CCCCC2)c(=O)c2c(C)c(-c3ncco3)sc21)OC(C)C` [Compound I-016], the IC90 in the experiment on Septoria tritici (St) was > 10 µg/mL; with Diplodia maydis (Dm), 0.4 µg/mL (≈ 0.653 µM); in the experiment on Rhizoctonia solani (Rs), 0.4 µg/mL (≈ 0.653 µM); in experiment [1] it was > 50 µg/mL; in experiment [2], 0.08 µg/mL (≈ 0.131 µM); in experiment [3] it was 0.4 µg/mL (≈ 0.653 µM). Further, the values for the IC90 (in the experiment with Botrtyis cinerea (Bc); in experiment [4]) were 0.4 µg/mL (≈ 0.653 µM) and 2 µg/mL (≈ 3.26 µM), respectively.

`COc1ccc(F)cc1[C@H](Cn1c(=O)n(C(C)(C)C(=O)N2CCCC2)c(=O)c2c(C)c(-c3ncco3)sc21)OC(C)C` [Compound I-017]: the IC90 in the experiment with Septoria tritici (St) is > 10 µg/mL; with Diplodia maydis (Dm) it was ≥ 0.08 µg/mL; in the experiment with Rhizoctonia solani (Rs), 0.4 µg/mL (≈ 0.668 µM); in experiment [1], > 50 µg/mL; in experiment [2], 0.08 µg/mL (≈ 0.134 µM); in experiment [3], 0.4 µg/mL (≈ 0.668 µM). Besides, the IC90 with Botrtyis cinerea (Bc) stood at 0.4 µg/mL (≈ 0.668 µM); in experiment [4] it was 0.08 µg/mL (≈ 0.134 µM).

Consider `COc1ccc(F)cc1[C@H](Cn1c(=O)n(C(C)(C)C(=O)NC(C)C)c(=O)c2c(C)c(-c3ncco3)sc21)OC(C)C` [Compound I-018], for which the IC90 in the experiment with Septoria tritici (St) is > 10 µg/mL; with Diplodia maydis (Dm) it was 0.4 µg/mL (≈ 0.682 µM); in the experiment on Rhizoctonia solani (Rs), 0.08 µg/mL (≈ 0.136 µM); in experiment [1], > 50 µg/mL; in experiment [2], 0.08 µg/mL (≈ 0.136 µM); in experiment [3], 0.4 µg/mL (≈ 0.682 µM). Besides, the IC90 (in the experiment on Botrtyis cinerea (Bc); in experiment [4]) was 0.4 µg/mL (≈ 0.682 µM) in each case.

Consider `CCNC(=O)C(C)(C)n1c(=O)c2c(C)c(-n3nccn3)sc2n(C[C@H](OC(C)C)c2cc(F)ccc2OC)c1=O` [Compound I-019], for which the IC90 is > 10 µg/mL in the experiment with Septoria tritici (St); ≥ 0.4 µg/mL in the experiment on Diplodia maydis (Dm); 0.08 µg/mL (≈ 0.14 µM) in the experiment with Rhizoctonia solani (Rs); > 50 µg/mL in experiment [1]; 0.08 µg/mL (≈ 0.14 µM) in experiment [2]; 0.4 µg/mL (≈ 0.698 µM) in experiment [3]. In addition, the IC90 (with Botrtyis cinerea (Bc); in experiment [4]) was ≥ 0.4 µg/mL each time.

Consider `COc1ccc(F)cc1[C@H](Cn1c(=O)n(C(C)(C)C(=O)N2CCOCC2)c(=O)c2c(C)c(-n3nccn3)sc21)OC(C)C` [Compound I-021], for which the IC90 is > 10 µg/mL in the experiment on Septoria tritici (St); 2 µg/mL (≈ 3.25 µM) in the experiment with Diplodia maydis (Dm); 0.4 µg/mL (≈ 0.651 µM) in the experiment with Rhizoctonia solani (Rs); > 50 µg/mL in experiment [1]; 0.08 µg/mL (≈ 0.13 µM) in experiment [2]; 0.4 µg/mL (≈ 0.651 µM) in experiment [3]. For the same compound, the IC90 is 0.4 µg/mL (≈ 0.651 µM) in the experiment on Botrtyis cinerea (Bc) and 2 µg/mL (≈ 3.25 µM) in experiment [4].

Consider `CCOC(=O)c1sc2c(c1C)c(=O)n(C(C)(C)C(=O)NC(C)C)c(=O)n2C[C@H](OCCC#N)c1cc(F)ccc1OC` [Compound I-300], for which, in the experiment on Septoria tritici (St), the “Compound Concentration (ppm) sufficient for ≥90% inhibition of St” value is >50 ppm. For the same compound, in the experiment with Rhizoctonia solani (Rs), the “Compound Concentration (ppm) sufficient for ≥90% inhibition of Rs” value was 0.08 ppm.

On to `CCOC(=O)c1sc2c(c1C)c(=O)n([C@H](C)C(=O)NC(C)C)c(=O)n2C[C@H](OCCC#N)c1cc(F)ccc1OC` [Compound I-330], for which the “Compound Concentration (ppm) sufficient for ≥90% inhibition of St” value with Septoria tritici (St) was >50 ppm. Further, the “Compound Concentration (ppm) sufficient for ≥90% inhibition of Rs” value in the experiment on Rhizoctonia solani (Rs) came out at 2 ppm.
